Data reported in ChEMBL document CHEMBL1201862, “PubChem BioAssay data set” (2004).
“And” between values parts separate entries of the source, which are not always exact repeats. Identical values can stand only once. The source made the active and inactive calls.

Key:
[1] = target: Alkaline phosphatase, placental type (Homo sapiens, UniProt P05187); test: PLAP enzyme inhibitors, confirmation, biochemical, luminescence (AID 1512); format: functional
Large T antigen = Large T antigen (Simian virus 40, UniProt P03070); format: functional, Betapolyomavirus macacae;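 further: Confirmatory-stage PubChem screen for compounds that inhibit SV40 T antigen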
[2] = target: T1, Alkaline phosphatase, tissue-nonspecific isozyme (Homo sapiens, UniProt P05186); test: human TNAP enzyme inhibitors, SAR follow-up, biochemical, luminescent, dose response (AID 1056)
T1 sequence (P05186 whole entry): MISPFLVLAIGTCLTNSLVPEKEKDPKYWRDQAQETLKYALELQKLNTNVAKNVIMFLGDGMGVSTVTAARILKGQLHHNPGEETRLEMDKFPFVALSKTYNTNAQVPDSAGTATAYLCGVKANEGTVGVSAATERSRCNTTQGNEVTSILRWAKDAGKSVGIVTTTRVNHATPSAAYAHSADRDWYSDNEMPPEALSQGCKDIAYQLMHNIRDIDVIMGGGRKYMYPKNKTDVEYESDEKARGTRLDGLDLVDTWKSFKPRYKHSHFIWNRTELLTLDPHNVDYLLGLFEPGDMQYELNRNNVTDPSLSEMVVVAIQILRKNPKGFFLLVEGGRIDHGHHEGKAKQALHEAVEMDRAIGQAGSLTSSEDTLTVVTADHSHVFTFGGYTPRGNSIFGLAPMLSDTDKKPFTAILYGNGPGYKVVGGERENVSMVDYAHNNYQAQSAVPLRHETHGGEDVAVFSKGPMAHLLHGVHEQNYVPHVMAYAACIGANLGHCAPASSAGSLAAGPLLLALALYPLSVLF

Leucine aminopeptidase = target: T2, Leucine aminopeptidase (Plasmodium falciparum 3D7, UniProt Q8IL11); test: P. falciparum M17LAP inhibitors, primary screen, biochemical, fluorogenic H-Leu-NHMec substrate, 1536-well (AID 1619); format: functional
T2 sequence (Q8IL11 whole entry): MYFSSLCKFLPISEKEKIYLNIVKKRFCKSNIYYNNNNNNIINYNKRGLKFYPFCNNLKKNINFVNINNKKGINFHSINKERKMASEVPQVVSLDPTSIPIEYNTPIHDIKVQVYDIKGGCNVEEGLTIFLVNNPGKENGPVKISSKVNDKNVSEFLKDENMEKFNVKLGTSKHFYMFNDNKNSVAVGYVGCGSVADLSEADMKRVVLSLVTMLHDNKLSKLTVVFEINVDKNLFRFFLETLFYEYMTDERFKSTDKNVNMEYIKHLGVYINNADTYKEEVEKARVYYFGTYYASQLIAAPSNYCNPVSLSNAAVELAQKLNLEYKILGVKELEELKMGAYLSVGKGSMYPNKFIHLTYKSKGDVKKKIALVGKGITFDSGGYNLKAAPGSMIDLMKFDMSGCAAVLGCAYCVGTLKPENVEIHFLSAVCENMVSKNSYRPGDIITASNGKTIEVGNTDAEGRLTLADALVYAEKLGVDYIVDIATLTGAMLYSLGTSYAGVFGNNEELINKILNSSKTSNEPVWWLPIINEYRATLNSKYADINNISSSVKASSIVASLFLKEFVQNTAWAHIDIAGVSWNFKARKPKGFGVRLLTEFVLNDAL

Bcl-2-like protein 10 = target: T3, Bcl-2-like protein 10 (Homo sapiens, UniProt Q9HD36); test: displacers of TR3 peptide from Bcl-B, primary screen, selectivity assay for Bfl-1 inhibitor project, biochemical, fluorescence polarization, FITC-TR3 peptide (AID 748);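 further: fluorescence polarization from a fluorescein-labelled TR3 peptide binding purified Bcl-B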
T3 sequence (Q9HD36 whole entry): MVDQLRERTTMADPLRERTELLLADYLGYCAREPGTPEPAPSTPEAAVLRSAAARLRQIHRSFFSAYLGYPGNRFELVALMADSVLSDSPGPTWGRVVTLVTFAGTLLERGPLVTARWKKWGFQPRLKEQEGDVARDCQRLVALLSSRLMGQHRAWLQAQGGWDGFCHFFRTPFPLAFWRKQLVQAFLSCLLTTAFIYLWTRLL

[3] = target: T4, Replicative DNA helicase DnaB (Mycobacterium tuberculosis, UniProt P9WMR3); test: DnaB intein splicing inhibitors, dose response, biochemical, cell-free fluorescence (AID 449749); format: functional
T4 sequence (P9WMR3 whole entry): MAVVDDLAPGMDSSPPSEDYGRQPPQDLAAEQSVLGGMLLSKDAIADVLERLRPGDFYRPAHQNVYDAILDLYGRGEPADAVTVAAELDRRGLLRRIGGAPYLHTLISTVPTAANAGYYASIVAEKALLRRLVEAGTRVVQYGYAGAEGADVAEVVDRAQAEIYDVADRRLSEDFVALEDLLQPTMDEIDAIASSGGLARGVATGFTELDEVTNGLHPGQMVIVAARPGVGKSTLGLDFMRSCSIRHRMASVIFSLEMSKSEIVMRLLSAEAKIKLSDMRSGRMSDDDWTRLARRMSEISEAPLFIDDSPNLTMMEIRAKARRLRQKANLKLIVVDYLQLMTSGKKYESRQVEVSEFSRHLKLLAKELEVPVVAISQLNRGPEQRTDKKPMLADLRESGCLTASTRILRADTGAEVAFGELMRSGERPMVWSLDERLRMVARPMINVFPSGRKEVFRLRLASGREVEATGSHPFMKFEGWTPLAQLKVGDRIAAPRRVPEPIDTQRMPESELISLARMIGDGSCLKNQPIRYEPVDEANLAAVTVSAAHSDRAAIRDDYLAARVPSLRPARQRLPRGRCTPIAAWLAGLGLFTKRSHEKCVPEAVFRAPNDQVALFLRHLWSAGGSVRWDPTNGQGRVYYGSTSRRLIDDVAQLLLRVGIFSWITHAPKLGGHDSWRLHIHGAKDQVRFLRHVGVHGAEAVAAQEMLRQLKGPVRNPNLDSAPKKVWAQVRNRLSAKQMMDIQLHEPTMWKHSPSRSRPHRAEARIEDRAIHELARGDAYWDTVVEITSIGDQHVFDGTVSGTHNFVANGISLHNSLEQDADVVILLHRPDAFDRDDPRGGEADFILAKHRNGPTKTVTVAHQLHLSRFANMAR

Saccharomyces cerevisiae = test: NALP1 inhibitor project selectivity study, Caspase-1/ASC signal blockade IC50 in S. cerevisiae (AID 488863); format: functional, organism-based
[4] = target: NACHT, LRR and PYD domains-containing protein 1 (Homo sapiens, UniProt Q9C000); test: NALP1 inhibitors in yeast, dose response, luminescent (AID 488860); format: functional
[5] = growth suppression of PTEN-null colon cells, dose response, cell-based, HCT116 PTEN knockout (AID 1047); format: functional;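 further: HCT116 colon tumor cells with PTEN knocked out; cells exposed to compound for 60 hours before readout; potency for loss of cell viability measured by luminescence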
[6] = growth suppression of beta-catenin-knockout colon cells, dose response, cell-based, HCT116, human colon tumor (AID 1045); format: functional;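 further: HCT116 colon tumor cells with beta catenin knocked out; cells exposed to compound for 60 hours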
Protein RecA = target: T5, Protein RecA (Mycobacterium tuberculosis, UniProt P9WHJ3); test: Fluorescence Cell-Free Homogeneous Dose Retest to Identify Inhibitors of RecA-Intein Splicing Activity. [Related pubchem assays (depositor defined):AID2097, AID2223, AID489010, AID492950]; format: functional
T5 sequence (P9WHJ3 whole entry): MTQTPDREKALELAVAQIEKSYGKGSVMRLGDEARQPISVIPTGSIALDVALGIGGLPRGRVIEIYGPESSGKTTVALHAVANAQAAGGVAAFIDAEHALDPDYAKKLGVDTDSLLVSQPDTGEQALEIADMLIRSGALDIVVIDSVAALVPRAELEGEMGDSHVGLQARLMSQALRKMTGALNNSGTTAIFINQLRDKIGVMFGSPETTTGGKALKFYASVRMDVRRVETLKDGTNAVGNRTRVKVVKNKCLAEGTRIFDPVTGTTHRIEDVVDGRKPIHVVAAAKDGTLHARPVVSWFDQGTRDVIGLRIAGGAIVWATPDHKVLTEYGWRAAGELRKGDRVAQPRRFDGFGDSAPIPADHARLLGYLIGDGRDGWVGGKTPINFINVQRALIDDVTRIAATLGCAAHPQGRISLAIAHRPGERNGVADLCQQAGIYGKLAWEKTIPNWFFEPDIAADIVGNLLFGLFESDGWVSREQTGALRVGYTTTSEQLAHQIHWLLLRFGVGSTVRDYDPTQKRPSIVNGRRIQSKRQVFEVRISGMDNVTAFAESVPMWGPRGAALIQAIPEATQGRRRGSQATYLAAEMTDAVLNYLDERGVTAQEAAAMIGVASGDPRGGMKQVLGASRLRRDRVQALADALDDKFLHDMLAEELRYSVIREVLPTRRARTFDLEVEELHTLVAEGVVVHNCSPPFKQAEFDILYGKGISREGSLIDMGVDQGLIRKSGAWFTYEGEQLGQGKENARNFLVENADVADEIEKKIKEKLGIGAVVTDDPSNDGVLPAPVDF

[7] = target: T6, Bifunctional protein GlmU (Mycobacterium tuberculosis, UniProt P9WMN3); test: Inhibitors of Mycobacterial Glucosamine-1-phosphate acetyl transferase (GlmU). Secondary screen.; design: species or system Mycobacterium tuberculosis H37Rv
T6 sequence (P9WMN3 whole entry): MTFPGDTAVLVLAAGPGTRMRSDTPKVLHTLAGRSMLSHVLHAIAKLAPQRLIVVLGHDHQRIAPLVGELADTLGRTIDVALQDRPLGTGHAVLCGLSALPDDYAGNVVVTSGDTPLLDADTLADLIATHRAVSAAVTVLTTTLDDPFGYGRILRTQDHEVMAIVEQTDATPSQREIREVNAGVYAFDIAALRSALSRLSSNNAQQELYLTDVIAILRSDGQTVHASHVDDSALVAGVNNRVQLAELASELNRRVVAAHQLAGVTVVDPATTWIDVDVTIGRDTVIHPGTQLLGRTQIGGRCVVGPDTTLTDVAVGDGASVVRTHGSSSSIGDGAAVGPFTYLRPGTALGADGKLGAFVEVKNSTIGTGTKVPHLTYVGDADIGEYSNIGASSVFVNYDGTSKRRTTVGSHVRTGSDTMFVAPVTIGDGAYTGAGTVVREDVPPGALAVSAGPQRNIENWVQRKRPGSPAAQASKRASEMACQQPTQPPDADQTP

[8] = target: T7, Heat shock factor protein 1 (Mus musculus, UniProt P38532); test: HSF1 potentiators in luciferase reporter cells, confirmation, cell-based, NIH3T3, luminescence, dose retest (AID 435004); format: functional;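 further: stress induced by proteasome inhibitor MG132 added 30 min after compound; luciferase reporter driven by HSF1 response element in NIH3T3 cells; actives raise luminescence as potentiators of the MG132 stress response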
T7 sequence (P38532 whole entry): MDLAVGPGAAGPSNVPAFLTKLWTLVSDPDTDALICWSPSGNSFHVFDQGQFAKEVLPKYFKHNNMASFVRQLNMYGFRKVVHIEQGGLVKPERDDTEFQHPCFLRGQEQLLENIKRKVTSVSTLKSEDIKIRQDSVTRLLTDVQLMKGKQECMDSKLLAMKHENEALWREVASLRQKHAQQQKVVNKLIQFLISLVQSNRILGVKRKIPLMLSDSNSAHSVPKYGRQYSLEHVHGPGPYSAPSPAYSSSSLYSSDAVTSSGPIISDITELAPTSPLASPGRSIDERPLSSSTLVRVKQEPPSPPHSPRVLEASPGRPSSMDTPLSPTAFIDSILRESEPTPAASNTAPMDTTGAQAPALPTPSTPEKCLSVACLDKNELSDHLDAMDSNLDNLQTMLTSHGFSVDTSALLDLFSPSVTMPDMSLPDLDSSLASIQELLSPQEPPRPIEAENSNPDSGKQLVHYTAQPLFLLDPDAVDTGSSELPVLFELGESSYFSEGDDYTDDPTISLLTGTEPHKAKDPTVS

CAAX prenyl protease 2 = CAAX prenyl protease 2 (Saccharomyces cerevisiae S288c, UniProt Q03530); format: biochemical
[9] = target: Polyadenylate-binding protein 1 (Homo sapiens, UniProt P11940); test: PABP inhibition in translation initiation, SAR follow-up (AID 435018); format: functional
[10] = target: Eukaryotic translation initiation factor 4H (Homo sapiens, UniProt Q15056); test: eIF4H inhibition in translation initiation, SAR follow-up (AID 435011); format: functional
[11] = target: Voltage-dependent T-type calcium channel subunit alpha-1H (Homo sapiens, UniProt O95180); test: Cav3.2 T-type channel inhibitors, cell-based, synthetic library set 1, calcium flux (AID 493022); format: functional
[12] = target: T8, Mannose-6-phosphate isomerase (Homo sapiens, UniProt P34949); test: PMI enzyme inhibitors, confirmation, biochemical, fluorescence intensity (AID 1535)
T8 sequence (P34949 whole entry): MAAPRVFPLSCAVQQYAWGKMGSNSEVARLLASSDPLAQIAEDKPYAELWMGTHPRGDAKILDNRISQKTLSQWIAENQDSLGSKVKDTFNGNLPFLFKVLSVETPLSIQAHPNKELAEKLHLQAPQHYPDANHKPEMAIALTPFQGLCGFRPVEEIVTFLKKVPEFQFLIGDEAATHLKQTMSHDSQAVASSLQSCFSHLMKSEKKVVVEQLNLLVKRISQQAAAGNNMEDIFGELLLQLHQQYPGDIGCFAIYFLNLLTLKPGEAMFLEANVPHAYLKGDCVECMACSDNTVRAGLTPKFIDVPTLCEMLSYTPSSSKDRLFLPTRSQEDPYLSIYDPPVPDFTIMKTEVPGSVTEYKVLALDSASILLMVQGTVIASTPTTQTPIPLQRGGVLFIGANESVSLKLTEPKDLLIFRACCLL

Phosphomannomutase 2 = Phosphomannomutase 2 (Homo sapiens, UniProt O15305); test: Counter screen SAR assay for PMM2 inhibitors via a fluorescence intensity assay. [Related pubchem assays (depositor defined):AID1545, AID1574]
[13] = target: Phosphoethanolamine/phosphocholine phosphatase (Homo sapiens, UniProt Q8TCT1); test: SAR assay for compounds that inhibit PHOSPHO1. [Related pubchem assays (depositor defined):AID1545, AID1565, AID1574]
Chain of Phosphoethanolamine/phosphocholine phosphatase (Q8TCT1 whole entry): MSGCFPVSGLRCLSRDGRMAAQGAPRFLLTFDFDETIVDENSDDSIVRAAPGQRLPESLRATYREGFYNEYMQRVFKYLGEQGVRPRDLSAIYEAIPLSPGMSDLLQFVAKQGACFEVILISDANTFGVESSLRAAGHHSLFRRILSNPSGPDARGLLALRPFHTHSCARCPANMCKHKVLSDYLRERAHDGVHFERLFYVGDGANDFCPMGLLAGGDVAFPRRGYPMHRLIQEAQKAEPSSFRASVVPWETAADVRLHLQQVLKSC

Chain of Alkaline phosphatase, placental type (P05187 whole entry): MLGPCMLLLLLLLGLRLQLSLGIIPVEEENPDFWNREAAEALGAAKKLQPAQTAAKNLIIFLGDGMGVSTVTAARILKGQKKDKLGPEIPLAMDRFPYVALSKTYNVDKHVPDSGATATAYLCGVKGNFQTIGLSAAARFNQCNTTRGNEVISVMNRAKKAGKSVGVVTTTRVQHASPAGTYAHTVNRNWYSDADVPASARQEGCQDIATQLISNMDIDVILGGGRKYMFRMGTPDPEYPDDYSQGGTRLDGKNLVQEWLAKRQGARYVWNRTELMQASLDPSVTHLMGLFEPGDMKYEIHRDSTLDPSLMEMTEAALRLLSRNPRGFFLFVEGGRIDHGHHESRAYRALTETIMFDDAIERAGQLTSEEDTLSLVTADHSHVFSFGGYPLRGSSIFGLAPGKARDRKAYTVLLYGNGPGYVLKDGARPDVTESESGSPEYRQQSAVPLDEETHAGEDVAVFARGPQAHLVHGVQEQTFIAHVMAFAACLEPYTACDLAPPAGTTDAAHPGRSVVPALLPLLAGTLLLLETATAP
Chain of CAAX prenyl protease 2 (Q03530 whole entry): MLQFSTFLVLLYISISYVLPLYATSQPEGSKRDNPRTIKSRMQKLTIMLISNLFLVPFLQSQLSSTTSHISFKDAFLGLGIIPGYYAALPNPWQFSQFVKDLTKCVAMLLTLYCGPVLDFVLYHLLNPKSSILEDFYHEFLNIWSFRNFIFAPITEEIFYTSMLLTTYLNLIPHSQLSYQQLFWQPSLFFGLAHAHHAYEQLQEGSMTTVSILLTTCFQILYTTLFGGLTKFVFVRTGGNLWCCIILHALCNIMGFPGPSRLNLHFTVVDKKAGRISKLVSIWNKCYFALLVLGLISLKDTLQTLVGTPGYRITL
Chain of Voltage-dependent T-type calcium channel subunit alpha-1H (O95180 whole entry): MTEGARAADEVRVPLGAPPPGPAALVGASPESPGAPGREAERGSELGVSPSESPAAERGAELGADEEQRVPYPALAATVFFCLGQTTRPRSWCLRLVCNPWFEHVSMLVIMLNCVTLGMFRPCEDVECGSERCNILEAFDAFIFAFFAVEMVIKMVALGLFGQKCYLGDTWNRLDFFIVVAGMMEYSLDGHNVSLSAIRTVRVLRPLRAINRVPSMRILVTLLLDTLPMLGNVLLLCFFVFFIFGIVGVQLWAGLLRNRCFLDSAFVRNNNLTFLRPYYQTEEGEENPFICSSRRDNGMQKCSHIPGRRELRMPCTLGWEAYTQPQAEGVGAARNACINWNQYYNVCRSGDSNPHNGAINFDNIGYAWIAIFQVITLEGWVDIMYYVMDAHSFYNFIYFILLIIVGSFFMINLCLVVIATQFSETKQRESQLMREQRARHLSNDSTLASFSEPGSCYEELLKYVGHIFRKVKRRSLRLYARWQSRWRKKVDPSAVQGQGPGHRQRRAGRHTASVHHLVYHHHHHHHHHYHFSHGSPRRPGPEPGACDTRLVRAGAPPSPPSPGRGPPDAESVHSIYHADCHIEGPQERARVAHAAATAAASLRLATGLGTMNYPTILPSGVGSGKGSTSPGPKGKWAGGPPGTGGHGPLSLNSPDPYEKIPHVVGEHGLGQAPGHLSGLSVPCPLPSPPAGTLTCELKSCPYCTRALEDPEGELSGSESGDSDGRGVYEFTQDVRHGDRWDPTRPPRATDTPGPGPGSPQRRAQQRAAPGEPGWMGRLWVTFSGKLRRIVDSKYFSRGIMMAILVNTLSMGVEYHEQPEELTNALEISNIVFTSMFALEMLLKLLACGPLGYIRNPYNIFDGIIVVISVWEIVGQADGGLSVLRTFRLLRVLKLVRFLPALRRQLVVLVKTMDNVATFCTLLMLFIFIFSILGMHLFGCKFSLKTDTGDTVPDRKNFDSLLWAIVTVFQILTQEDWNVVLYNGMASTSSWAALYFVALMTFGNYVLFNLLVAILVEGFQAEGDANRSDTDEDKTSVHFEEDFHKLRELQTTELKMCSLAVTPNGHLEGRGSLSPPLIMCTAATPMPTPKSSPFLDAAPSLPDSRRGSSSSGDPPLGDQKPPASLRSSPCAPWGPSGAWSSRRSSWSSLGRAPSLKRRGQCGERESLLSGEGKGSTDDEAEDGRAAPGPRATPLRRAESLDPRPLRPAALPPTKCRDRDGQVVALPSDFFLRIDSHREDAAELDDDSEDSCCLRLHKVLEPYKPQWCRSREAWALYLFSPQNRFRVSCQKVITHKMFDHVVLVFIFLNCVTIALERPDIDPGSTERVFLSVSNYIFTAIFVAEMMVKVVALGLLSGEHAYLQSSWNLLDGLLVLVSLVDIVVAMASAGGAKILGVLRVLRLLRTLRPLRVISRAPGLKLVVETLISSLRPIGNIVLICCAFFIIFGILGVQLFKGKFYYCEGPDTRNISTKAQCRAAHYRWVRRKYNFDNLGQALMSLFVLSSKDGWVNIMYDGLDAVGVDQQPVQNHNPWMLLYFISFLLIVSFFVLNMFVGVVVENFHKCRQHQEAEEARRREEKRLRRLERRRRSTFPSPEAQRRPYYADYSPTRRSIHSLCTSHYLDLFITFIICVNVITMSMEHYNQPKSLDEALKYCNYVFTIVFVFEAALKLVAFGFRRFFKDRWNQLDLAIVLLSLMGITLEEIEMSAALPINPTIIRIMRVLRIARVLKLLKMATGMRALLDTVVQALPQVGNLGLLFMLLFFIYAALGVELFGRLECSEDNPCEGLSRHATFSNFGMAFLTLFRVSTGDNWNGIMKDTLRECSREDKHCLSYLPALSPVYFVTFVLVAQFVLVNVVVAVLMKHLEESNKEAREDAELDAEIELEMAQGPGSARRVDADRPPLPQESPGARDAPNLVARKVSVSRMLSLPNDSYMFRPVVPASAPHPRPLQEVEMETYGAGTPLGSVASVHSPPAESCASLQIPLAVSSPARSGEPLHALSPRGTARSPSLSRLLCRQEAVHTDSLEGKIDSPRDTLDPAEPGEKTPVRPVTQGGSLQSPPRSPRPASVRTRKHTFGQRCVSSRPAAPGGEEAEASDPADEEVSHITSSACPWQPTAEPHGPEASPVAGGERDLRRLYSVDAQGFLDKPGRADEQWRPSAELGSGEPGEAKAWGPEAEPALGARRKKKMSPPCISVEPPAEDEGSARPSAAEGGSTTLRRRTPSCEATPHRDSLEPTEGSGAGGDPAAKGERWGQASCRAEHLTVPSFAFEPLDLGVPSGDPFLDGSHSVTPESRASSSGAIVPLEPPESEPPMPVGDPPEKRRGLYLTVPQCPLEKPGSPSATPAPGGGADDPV
Chain of Phosphomannomutase 2 (O15305 whole entry): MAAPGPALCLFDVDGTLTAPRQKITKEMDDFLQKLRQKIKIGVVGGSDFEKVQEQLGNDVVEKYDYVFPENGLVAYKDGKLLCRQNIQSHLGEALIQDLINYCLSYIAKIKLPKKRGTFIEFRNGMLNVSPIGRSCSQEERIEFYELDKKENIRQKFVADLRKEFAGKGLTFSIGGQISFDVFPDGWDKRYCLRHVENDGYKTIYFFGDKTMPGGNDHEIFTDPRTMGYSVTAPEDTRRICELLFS
Chain of Polyadenylate-binding protein 1 (P11940 whole entry): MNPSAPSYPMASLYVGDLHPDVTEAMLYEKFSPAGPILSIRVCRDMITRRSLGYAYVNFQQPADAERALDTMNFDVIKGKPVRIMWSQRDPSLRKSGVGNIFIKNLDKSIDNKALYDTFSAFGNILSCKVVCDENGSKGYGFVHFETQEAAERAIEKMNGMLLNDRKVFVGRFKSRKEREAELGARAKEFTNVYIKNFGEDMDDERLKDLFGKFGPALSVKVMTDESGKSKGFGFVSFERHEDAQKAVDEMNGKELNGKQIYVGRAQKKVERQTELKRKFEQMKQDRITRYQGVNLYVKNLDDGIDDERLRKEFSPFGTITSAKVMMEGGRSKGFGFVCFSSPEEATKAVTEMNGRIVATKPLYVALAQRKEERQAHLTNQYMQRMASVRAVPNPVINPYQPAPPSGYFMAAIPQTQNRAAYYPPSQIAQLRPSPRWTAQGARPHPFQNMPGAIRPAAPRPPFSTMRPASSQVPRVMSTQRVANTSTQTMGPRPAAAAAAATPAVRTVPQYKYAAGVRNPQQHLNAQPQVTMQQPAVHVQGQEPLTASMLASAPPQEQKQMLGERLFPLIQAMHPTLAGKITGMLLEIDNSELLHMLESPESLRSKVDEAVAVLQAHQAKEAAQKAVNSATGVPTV

## C=CCn1c(SCC(=O)c2ccc(O)c(O)c2)nnc1-c1ccccc1OC
[1]
  IC50: 2.6 µM (active) and 2.79 µM (active)
Large T antigen
  IC50: 14.7 µM (active)
[2]
  IC50: > 100 µM (inactive) and 44.8 µM (active)
Leucine aminopeptidase
  IC50: 22.8 µM (active)
Bcl-2-like protein 10
  IC50: > 100 µM (inactive)

## Cn1cnc([N+](=O)[O-])c1S(=O)(=O)c1ccc(Cl)cc1
[3]
  AC50: 19.5 µM (active)
Saccharomyces cerevisiae
  IC50: 19.8 µM (active)
[4]
  IC50: 17.7 µM (active)
[5]
  EC50: 6.79 µM (active)
[6]
  EC50: 5.88 µM (active)
Protein RecA
  EC50: 8.29 µM (active)
[7]
  IC50: 101 µM (active)
[8]
  EC50: 17.8 µM (active)

## O=C(c1cnc(Cl)c(Cl)c1)N1CCC(Cc2ccccc2)CC1
CAAX prenyl protease 2
  AC50: 18.2 µM (active)

## CCN1C(=O)CC(C(=O)Nc2ccc(F)cc2)S/C1=N\c1ccccc1OC (stereo not given)
[9]
  IC50: > 100 µM (inactive)
[10]
  IC50: > 100 µM (inactive)

## O=C(COc1ccc(F)c(Cl)c1)Nc1nnc(-c2ccc(F)cc2)o1
[11]
  EC50: 1.7 µM (active)

## O=c1c2ccc(F)cc2sn1-c1cc(Cl)ccc1Cl
[12]
  IC50: 44.9 µM (active)
Phosphomannomutase 2
  IC50: 3.37 µM (active)
[13]
  IC50: 0.384 µM (active)
